Target: T1, OCTN2 (hOCTN2) (Homo sapiens, UniProt O76082, Y211A)
T1 construct: gene SLC22A5; hOCTN2 mutant expressed in Xenopus laevis oocytes
T1 sequence (O76082 1-557 Y211A): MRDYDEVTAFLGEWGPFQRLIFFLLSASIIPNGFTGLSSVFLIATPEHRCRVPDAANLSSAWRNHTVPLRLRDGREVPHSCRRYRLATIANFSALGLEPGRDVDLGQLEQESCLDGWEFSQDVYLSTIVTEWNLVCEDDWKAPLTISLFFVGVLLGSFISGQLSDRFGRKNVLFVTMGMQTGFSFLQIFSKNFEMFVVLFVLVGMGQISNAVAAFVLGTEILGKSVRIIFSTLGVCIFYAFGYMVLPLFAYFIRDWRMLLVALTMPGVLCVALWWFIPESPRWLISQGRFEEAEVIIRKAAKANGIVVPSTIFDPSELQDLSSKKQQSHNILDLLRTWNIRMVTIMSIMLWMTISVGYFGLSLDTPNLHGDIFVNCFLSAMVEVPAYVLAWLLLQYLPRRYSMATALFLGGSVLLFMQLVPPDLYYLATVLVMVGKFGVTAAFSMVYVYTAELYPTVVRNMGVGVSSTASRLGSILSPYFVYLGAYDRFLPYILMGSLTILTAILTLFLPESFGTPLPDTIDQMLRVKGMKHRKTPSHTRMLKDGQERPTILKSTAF
Assay: two-electrode voltage clamp in oocytes, apparent KM (increased versus wildtype)
Type: cell-based

SMILES: C[N+](C)(C)C[C@H](O)CC(=O)[O-] [L-carnitine]
- two-electrode voltage clamp in oocytes, apparent KM (increased versus wildtype): Mutating this residue to an alanine shows a similar increase in carnitine KM as the mutants above (Fig. 2f).
